Earlier results on 1 compound are cited in patent publication US9433620B2, “Pharmaceutical compositions of lurasidone” (CADILA HEALTHCARE LIMITED, priority 2011, dated 2016).

Where a name gives a salt, the structure may show the parent alone.

As to `O=C1[C@@H]2[C@H]3CC[C@H](C3)[C@@H]2C(=O)N1C[C@@H]1CCCC[C@H]1CN1CCN(c2nsc3ccccc23)CC1` [lurasidone, N-[4-[4-(1,2-benzisothiazol-3-yl)-1-piperazinyl]-(2R,3R)-2,3-tetramethyle-ne-butyl]-(1′R,2′S,3′R,4′S)-2,3-bicyclo[2,2,1]heptanedicarboxylmide hydrochloride], the solubility in water entry is listed as “less than several”.
